Experiments:
[1] = system: TNBS colitis; experiment: TNBS colitis, systemic (spleen) inflammation after PSA; type: in vivo, mouse
Protocol: Three models of intestinal inflammation were used: 1) CD4^+CD45Rb^high T cells were purified from the spleens of wild-type or IL-10^−/− donor mice by flow cytometry and transferred into Rag (C57Bl/6) recipients as described. 2) TNBS colitis was induced by pre-sensitization of wild-type (C57Bl/6) mice on the skin with a TNBS/acetone mix. Seven days after sensitization, 2.5% TNBS in ethanol was administered rectally; mice were sacrificed 3-6 days later.
Cytokines from the spleen, colons, or mesenteric lymphonodes (MLNs) were assayed by ELISA, Q-PCR, or flow cytometry. Colitis was assessed with tissue sections (fixed, paraffin embedded, sectioned onto a slide, and stained with hematoxylin and eosin) and was scored by a blinded pathologist (Dr. R. T. Bronson, Harvard Medical School) according to a standard scoring system: 0, no thickening of colonic tissues and no inflammation (infiltration of lymphocytes); 1, mild thickening of tissues but no inflammation; 2, mild thickening of tissues and mild inflammation; 3, severe thickening and severe inflammation. BMDCs were purified from femurs of mice after extraction and washing in PBS. Cells were cultured for 8 days in C-RPMI-10 in the presence of GM-CSF (20 ng/mL; Biosource, Camarillo, Calif.). CD4^+ T cells were purified by negative selection over a magnetic column (Miltenyi or R& D Systems).
The backs of wild-type (C57BL/6) male mice were shaved, and pre-sensitization solution (150 μL; acetone with olive oil in a 4:1 ratio mixed with 5% TNBS in a 4:1 ratio) was slowly applied. […] Mice were analyzed 4-6 days after TNBS administration.
Animals were orally gavaged with vehicle or PSA twenty-four hours prior to being induced with colitis. Five days post-induction CD4+ T cells were isolated from the spleens of indicated animals and analyzed for the inflammatory cytokines TNF-α, IL-17a and IL-6 to determine how systemic inflammation is influenced during intestinal disease.

[2] = system: endotoxin shock in TLR2−/− mice; experiment: Endotoxin induced sepsis in TLR2-/- mice; type: in vivo, mouse
Protocol: (§1) FIG. 6 Panels C and A show detection of TNF-a in TLR2^−/− or IL-10^−/− mice treated intravenously treated i.v. with PBS or PSA directly following induction of endotoxin shock by intraperitoneal administration of high doses of LPS (500 ug).
(§2) Therefore, to determine whether PSA protection from endotoxin induced sepsis also required these pathways the following experiments were performed.

[3] = system: cecal-ligation puncture (CLP) model; experiment: Cecal-ligation puncture (CLP) model of sepsis; type: in vivo, mouse; conditions: PSA vs PBS mock treated (about fifty percent succumbed)
From the text: To validate a role for PSA during protection from sepsis, a second, well-established mouse model of sepsis called the cecal-ligation puncture (CLP) model was used. CLP induces colonic spillage of bacteria into the peritoneal cavity, which then enter the bloodstream. Although there are limitations, this model is thought to best mimic a primary cause of human sepsis (polymicrobial infection from the gut).

[4] = system: endotoxin (lipopolysaccharide; LPS) induced sepsis, Balb/c animals; experiment: Endotoxic shock model (high dose LPS), PSA given orally or intravenously before induction; type: in vivo, mouse
Protocol: In this model, animals are treated intravenously with high doses of endotoxin (lipopolysaccharide; LPS). Administration of LPS leads to the production of massive amounts of inflammatory cytokines such as tumor necrosis factor α (TNF-α) and IL-6 and animals rapidly succumb to death. This model closely resembles the cytokine storm seen in patients suffering from septic shock.
(§3) Five days post-induction CD4+ T cells were isolated from the spleens of the indicated animals. Equal amounts of RNA were used to perform q-RT-PCR on IL6 or TNFa cytokines at 1 and 4 hours post-LPS. (FIG. 1 panel A diagram on the left, and FIG. 1 panel B diagram on the left)
as §3, with “In another set of experiments, Balb/c animals were treated intravenously with PSA 24 hours prior to be induced with TNBS colitis. Five” for “Five”, “right,” for “left,”, “right)” for “left)”
Detection of percent survival of in animals treated intravenously with high doses of endotoxin (lipopolysaccharide; LPS) was performed. Accordingly, Balb/C animals were orally or intravenously treated with PSA or PBS as described in Example 2 and the number of surviving mice counted.

[5] = system: LPS sepsis in RAG−/− mice; experiment: Endotoxin induced sepsis in RAG-/- mice with or without transfer of T cells, CD4 depleted splenocytes or CD19+ B cells; type: in vivo, mouse
Protocol: In particular, the requirement for T and B cells during PSA mediated protection from sepsis was tested.
In a first set of experiments, RAG^−/− animals were treated i.v. with either PBS or PSA 24 hours prior to receiving high dose LPS i.p. Serum was collected from animals at 1 and 4 hours, TNF-α and IL-6 were measured by ELISA (FIG. 3 Panel A) and survival monitored (FIG. 3 Panel B). Two experiments were combined. *p<0.05 **p<0.005 using a logrank and Gehan-Wilcoxon test.
In a second set of experiments, RAG^−/− recipients received either CD4+CD3+ (square) or total T cells (CD3+) (triangle) or CD4 depleted splenocytes (includes CD8+ T cells and CD19+ B cells) (sphere). Twenty-four hours later animals were given LPS. Serum was collected 1 and 4 hours post-LPS to measure cytokines (FIG. 3 Panel C) and survival was monitored (FIG. 3 Panel D).
In a third set of experiments sort purified CD19+ total B cells were purified from the spleen of donor animals and transferred into RAG^−/− recipients and inflammatory cytokines were monitored at 1 and 4 hours (FIG. 3 Panel E) as well as survival (FIG. 3 Panel F). * p<0.05 **p<0.005 by a student's t test for all ELISA data and *p<0.05 **p<0.005 using a logrank and Gehan-Wilcoxon test for survival data. ELISA data is representative from one experiment repeated twice with an n of 4 in each group. Survival data combines multiple experiments.

[6] = system: endotoxin shock in IL-10−/− mice; experiment: Endotoxin induced sepsis in IL-10-/- mice; type: in vivo, mouse
Protocol: as §1, §2

[7] = system: endotoxin induced sepsis, Balb/c animals; experiment: Endotoxin induced sepsis, PSA administered i.v. after LPS; type: in vivo, mouse
Protocol: To mimic a clinically significant treatment situation, PSA was administered after inducing endotoxin induced sepsis. Balb/c animals were treated with high doses of LPS (500 ug) i.p. and subsequently treated i.v. with PBS, PSA or PSA was administered 30 minutes post-LPS (see FIG. 2).
Since this is an acute model, where overt inflammation occurs within one hour after induction two timepoints for PSA treatment were tested. In particular, serum was collected 1 and 4 hours post-LPS injection and cytokines TNF-α (FIG. 2 Panel A) and IL-6 (FIG. 2 Panel B) were detected by ELISA.
Each experiment consisted of at least 4 animals in each groups and was repeated twice. * p<0.05 **p<0.005 as measured by a students t test One group received i.v. administration of PSA directly after LPS injection (PSA same) while the second group received PSA thirty minutes post-LPS injection (PSA-post) (FIG. 2).

[8] = system: LPS sepsis in RAG−/− recipients of B1 or MZ B cells; experiment: Endotoxin induced sepsis in RAG-/- recipients of sort purified B1 or MZ B cells, treated with PSA; type: in vivo, mouse
Protocol: Multiple subsets of B cells exist within the spleen including B1, follicular, and MZ B cell populations. […] Both B1 and MZ B cells can secrete IgM in a T cell independent manner, therefore experiments were performed to determine whether either of these subsets conferred protection from sepsis by PSA. B1 cells and MZ B cells were sort purified and transferred into RAG^−/− animals. Animals were subsequently treated with PSA and induced for disease.
In particular in a first set of experiments, marginal zone B cells (CD19+B220+IgM^hiCD21^hiCD23) were sort purified and transferred into RAG^−/− recipients. Twenty-four hours later these animals were given high dose LPS and serum collected at 1 and 4 hours to assay for TNF-α (FIG. 4 Panel A) and survival was monitored (FIG. 4 Panel B).

[9] = system: TNF-α or IL-6 production; experiment: Cytokine induction by PSA administered i.v. alone; conditions: data not shown
[10] = system: LPS sepsis in RAG−/− recipients of sIgM−/− B cells; experiment: Endotoxin induced sepsis in RAG-/- recipients of B cells from sIgM-/- mice; type: in vivo, mouse
From the text: To test whether IgM is the mechanism by which PSA is able to protect from endotoxin induced sepsis total B cells were isolated from the spleen of animals that are unable to make secreted IgM (sIgM^−/−) and transferred these cells into RAG^−/− recipients according to procedure of Example 7.

[11] = system: marginal zone B cells; experiment: Transfer of MZ B cells from PSA treated donors into RAG-/- recipients, then LPS induced sepsis; type: in vivo, mouse
Protocol: To further validate this conclusion, experiments were performed to determine whether the function of PSA on MZ B cells could be transplanted into mice that have never been treated with PSA. WT animals were treated i.v. with two doses of PSA and splenic MZ B cells were isolated and subsequently transferred into a RAG^−/− recipients. LPS induced sepsis was then induced in the MZ B cell recipients without any treatment with PSA.
In particular a second set of experiments, WT C57Bl/6 animals were treated i.v. with either PBS or PSA (100 ug) every other day for a total of three days (FIG. 4 Panels C and D). MZ B cells were subsequently sort purified as in the first set of experiments and 8×10^5 MZ B cells were transferred into RAG^−/− recipients. Twenty-four hours later animals received high dose LPS (500 ug). Serum was collected at indicated time points to analyze TNF-α (FIG. 4 Panel E) and survival monitored (FIG. 4 Panel F). * p<0.05 **p<0.005 by a student's t test for all ELISA data and *p<0.05 **p<0.005 using a logrank and Gehan-Wilcoxon test for survival data.
Marginal zone B cells secrete copious amounts of polyreactive IgM. […] Based on this, serum was isolated from RAG^−/− animals that received a MZ B transplant from PSA treated mice and quantitated IgM serum levels.

[12] = PSA i.v. following LPS 500 ug i.p.
[13] = RAG−/− mice reconstituted with CD19+ total B cells, i.v. PSA vs PBS
[14] = PSA i.v. thirty minutes post-LPS (PSA post)

## polysaccharide A [PSA]
[1]; PSA orally gavaged 24 h prior to colitis induction, five days post-induction, vs colitogenic animals
  inflammatory cytokine expression (TNF-α, IL-17a, IL-6) in splenic CD4+ T cells: reduced cytokine expression
[1]; intravenous PSA 24 h prior to TNBS colitis
  whether PSA influences inflammation within the systemic compartment (colon disease score, survival; FIG. 5 C, D): supported this conclusion
[1]; orally gavaged PSA
  splenomegaly in colitic animals: able to prevent
[2]; PSA i.v.
  TNFα and IL-6 levels during septic shock: suppressed
[2]; [12]
  survival: completely protected from death
[3]
  survival: significantly increased survival rate
[4]; PSA provided directly within the blood (intravenous), 1 and 4 hours post-LPS, vs mock treated
  serum inflammatory cytokines (TNF-α, IL-6): significantly blocked induction of serum inflammatory cytokines
[4]; animals fed PSA (oral gavage), vs mock treated
  serum TNF-α: slightly elevated
[4]; intravenous administration of PSA
  survival: potently protected animals from death
[5]; RAG−/− animals (no T and B cells), PSA i.v. 24 hours prior to high dose LPS i.p.
  protection from sepsis (serum TNF-α, survival): no longer protected animals from sepsis
[5]; [13]
  serum levels of TNFα: significantly reduced
  survival: survived
[5]; RAG−/− recipients of CD3+ total T cells
  PSA mediated protection from death: unable to restore PSA mediated protection from death
[5]; RAG−/− recipients of CD4+ T cell depleted splenocytes
  prevention of death and suppression of systemic inflammation: restored the ability of PSA to prevent death and suppress systemic inflammation
[5]; RAG−/− recipients of CD4+ sort purified T cells
  PSA mediated protection from death: unable to restore PSA mediated protection from death
[6]; PSA i.v.
  TNFα and IL-6 levels during septic shock: suppressed
[6]; [12]
  survival: completely protected from death
[7]; PSA i.v. directly following LPS 500 ug i.p. (PSA same), 1 and 4 hours post-LPS
  serum TNF-α and IL-6 levels: reduced levels
[7]; PSA i.v. directly following LPS (PSA same)
  survival: high survival rate
[7]; [14]
  serum TNF-α: lower serum levels
  survival: higher survival rate
[8]; RAG−/− recipients of B1b cells, data not shown
  PSA mediated protection: did not restore PSA mediated protection
[8]; RAG−/− recipients of purified MZ B cells, PSA treated
  survival: protect animals from sepsis induced death
[8]; RAG−/− recipients of purified MZ B cells, PSA treated, 1 and 4 hours after high dose LPS
  serum levels of TNF-α: suppression of serum levels of TNF-α
[9]; PSA i.v. into animals
  overt inflammation on i.v. administration: does not elicit overt inflammation
[9]; PSA i.v., no LPS
  TNF-α or IL-6 production induced by PSA on its own: does not on its own induce
[10]; PSA i.v. treated animals vs PBS treated
  protection from sepsis (serum inflammatory cytokines, death): protected
[10]; RAG−/− animals that received MZ B cells from sIgM−/− mice, PSA i.v.
  protection from sepsis (serum inflammatory cytokines, death): no longer protected by administration of PSA
[11]; RAG−/− recipients of 8×10^5 MZ B cells from donors treated i.v. with PSA (100 ug), recipients not treated with PSA, LPS 500 ug
  protection from endotoxin induced sepsis (serum TNF-α, mortality): completely protected from endotoxin induced sepsis
[11]; RAG−/− recipients of MZ B cells from PSA treated animals vs from mock treated mice
  IgM serum levels during LPS induced sepsis: high levels of circulating IgM

From US11331335B2, “Sepsis treatment and related compositions methods and systems” (CALIFORNIA INSTITUTE OF TECHNOLOGY, priority 2015, dated 2022)
